What was measured:
Format in all cases: physicochemical
[1] = Kinetic study of the coupling reaction of sydnones with cyclic alkyne BCN in PBS/DMSO (HPLC); conditions: for K (BCN), second order kinetic constant: PBS/DMSO (9:1), 100 μM sydnone, 150 μM BCN
Method: (§1) The kinetics of the coupling reaction of different sydnones with two cyclic alkynes was studied, according to the following scheme.
(§2) Reactions of sydnones with BCN (or TMTH) were carried out in PBS/DMSO (9:1) mixtures at 100 μM concentration of sydnones and 150 μM concentration of BCN using the following procedure:
(§3) To 900 μL of phosphate buffered saline (PBS, 100 mM) was added 87.5 μL of DMSO, 10 μL of the solution of benzamide (internal standard, 100 mM in DMSO), 1 μL of the solution of sydnone (100 mM in DMSO) and 1.5 μL of the solution of BCN (100 mM in DMSO). The reaction mixture was injected in HPLC every 30 min and the conversion was followed by measuring the normalized sydnone peak area.
(§4) Second order reaction rate was determined by plotting ln([A]/[B])/([A]−[B]) versus time and analyzing by linear regression. Second order rate constant corresponds to the determined slope.

[2] = HPLC monitoring of the cycloaddition reaction with BCN in blood plasma; conditions: 100 μM sydnone, 150 μM BCN, after 1 hour
Method: Reactions of sydnone S1-2 with bicyclononyne BCN was carried out in blood plasma at 100 μM concentration of sydnone and 150 μM concentration of cyclooctyne BCN using the following procedure:
as §3, with “blood plasma were” for “phosphate buffered saline (PBS, 100 mM) was”, “added” for “added 87.5 μL of DMSO,”

[3] = Kinetic study of the coupling reaction of sydnones with cyclic alkyne TMTH in PBS/DMSO (HPLC); conditions: PBS/DMSO (9:1), 100 μM sydnone
Method: as §1, §2, §3, §4

Structure (SMILES) | K (BCN), second order kinetic constant [1] [M⁻¹ s⁻¹] | conversion of sydnone in reaction with BCN [2] | K (TMTH), second order kinetic constant [3] [M⁻¹ s⁻¹] | ratio of K constant (BCN) to K constant of the corresponding sydnone not substituted in position 4 ([1]; K(S1-1)/K(S0-3), K(S1-2)/K(S0-4))
O=C(O)c1ccc(-[n+]2cc([O-])on2)cc1 [Sydnone S0-4, 3-(4-carboxyphenyl)-1,2,3λ^5-oxadiazol-3-ylium-5-olate, reference compound] | 0.059 ± 0.001 | – | – | –
O=C(O)c1ccc(-[n+]2noc([O-])c2Cl)cc1 [Sydnone S1-2, 3-(4-carboxyphenyl)-4-chloro-1,2,3λ^5-oxadiazol-3-ylium-5-olate] | 1.593 ± 0.034 | almost complete reaction | 322 | 27
O=C(O)c1ccc(-[n+]2noc([O-])c2Br)cc1 [Sydnone S2-2, 4-bromo-3-(4-carboxyphenyl)-1,2,3λ^5-oxadiazol-3-ylium-5-olate] | 0.798 ± 0.065 | – | 101 | –

From US20170081300A1, “SYDNONE DERIVATIVES FOR CONJUGATION OF COMPOUNDS OF INTEREST” (UNIVERSITE DE STRASBOURG, priority 2014, published 2017)
